Results as given in patent publication US5489612A, “Calixarene chloride-channel blockers” (The University of Alabama at Birmingham Research Foundation, priority 1994, dated 1996).
Read-outs that look alike come from different tables or passages of the source.

System: colonic secretory chloride channel
Experiment: Single chloride channels from rat colonic enterocyte plasma membrane vesicles incorporated into planar lipid bilayers; calixarene added to the cis (outer membrane) side
Type: biochemical
Settings: for duration of the block periods: increases with size n of p-sulfonatocalix[n]arene; for MAXIMUM BLOCK PERIODS: single channel in PE:PS 7:3 planar bilayer; for MAXIMUM BLOCK PERIODS (block of channel): UPTO 100 μM
Description: In accordance with the methodology of Reinhardt et al., "Properties of an Anion-selective Channel from Rat Colonic Enterocyte Plasma Membranes Reconstituted into Planar Phospholipid Bilayers", J. Membrane Biol. 95: 47-54, 1987, calixarene derivatives were tested on single chloride channels incorporated into planar lipid bilayers. Plasma membrane vesicles derived from rat colonic enterocytes were used as a source of chloride channels. Properties of the colonic secretory chloride channel include one dominant open-state conductance, an outwardly rectified current-voltage relation with a zero voltage slope conductance of 50 pS in 150 mM Cl, a Cl to Na selectivity of at least 10:1, and a halide selectivity of I>Br>CI>F. Patch-clamp studies of several chloride secreting epithelia have identified an apical membrane chloride channel with identical biophysical properties. This channel is activated by CAMP and Ca mediated agonists and thus is considered a secretory chloride channel.
Chloride channels were incorporated into planar lipid bilayers of phosphatidylethanolamine and phosphatidylserine (PE:PS, 7:3) and data recorded according to known test methodology. See, Bridges et al., "Stilbene Disulfonate Blockade of Colonic Secretory Cl^- Channels in Planar Lipid Bilayers", Am. J. Physiol. 256 (Cell Physiol. 25): C902-C912, 1989. See also, Reinhardt et al. and Singh et al., supra.
Once a chloride channel was incorporated into the bilayer, baseline (control) channel activity was recorded for 5-15 minutes. The calixarenes were then added to the cis or outer membrane side of the channel and the channel activity recorded for an additional 5-15 minutes at each concentration. Because each channel serves as its own control, calixarene effects could be uniquely identified. In some experiments the cis compartment was exchanged with calixarene-free solution to test the reversibility of the calixarene-induced effects. Single channel records were stored on video tape and quantitatively evaluated by computer assisted analysis.

[1] = single channel in planar bilayer, Table 1, read-out: Ki (concentration causing a half-maximal inhibition)

## O=S(=O)(O)c1cc2c(O)c(c1)Cc1cc(S(=O)(=O)O)cc(c1O)Cc1cc(S(=O)(=O)O)cc(c1O)Cc1cc(S(=O)(=O)O)cc(c1O)Cc1cc(S(=O)(=O)O)cc(c1O)Cc1cc(S(=O)(=O)O)cc(c1O)Cc1cc(S(=O)(=O)O)cc(c1O)Cc1cc(S(=O)(=O)O)cc(c1O)C2 [5,11,17,23,29,35,41,47-octasulfonatocalix[8]arene]
  duration of the block periods: > 100 s
Table 1
  MAXIMUM BLOCK PERIODS: > 100 s
[1]
  Ki: < 0.05 µM

## O=S(=O)(O)c1cc2c(O)c(c1)Cc1cc(S(=O)(=O)O)cc(c1O)Cc1cc(S(=O)(=O)O)cc(c1O)Cc1cc(S(=O)(=O)O)cc(c1O)Cc1cc(S(=O)(=O)O)cc(c1O)Cc1cc(S(=O)(=O)O)cc(c1O)C2 [5,11,17,23,29,35-hexasulfonatocalix[6]arene]
  duration of the block periods: 30 to 40 s
Table 1
  MAXIMUM BLOCK PERIODS: 30 to 40 s
[1]
  Ki: 0.4 to 0.5 µM

## O=S(=O)(O)c1cc2c(O)c(c1)Cc1cc(S(=O)(=O)O)cc(c1O)Cc1cc(S(=O)(=O)O)cc(c1O)Cc1cc(S(=O)(=O)O)cc(c1O)C2 [5,11,17,23-TETRASULFONATO-CALIX[4]ARENE, 5,11,17,23-tetrasulfonato-calix[4]arene]
  duration of the block periods: 3 to 4 s
read-out: concentration causing a half maximal decrease (K1) in Po (percent time channel in open state)
  Ki: < 1 µM
Table 1
  MAXIMUM BLOCK PERIODS: 3 to 4 s
[1]
  Ki: 0.8 to 0.9 µM

## COc1c2cc(S(=O)(=O)O)cc1Cc1cc(S(=O)(=O)O)cc(c1OC)Cc1cc(S(=O)(=O)O)cc(c1OC)Cc1cc(S(=O)(=O)O)cc(c1OC)C2 [5,11,17,23-tetrasulfonato-25,26,27,28-tetramethoxy-calix[4]arene]
At a concentration as low as 3 nM
  long-lived block periods, duration: several hundred
estimate
  K1 (suggested from brief open periods between long blocks): subnanomolar
Table 1
  MAXIMUM BLOCK PERIODS: > 100 s
[1]
  Ki: < 0.003 µM

## COc1c2cccc1Cc1cccc(c1OC)Cc1cccc(c1OC)Cc1cccc(c1OC)C2 [25,26,27,28-TETRAMETHOXY-CALIX[4]ARENE, reference compound]
  MAXIMUM BLOCK PERIODS (block of channel): NO BLOCK

## Oc1c2cccc1Cc1cccc(c1O)Cc1cccc(c1O)Cc1cccc(c1O)C2 [CALIX[4]ARENE, Calix[4]arene, reference compound]
  MAXIMUM BLOCK PERIODS (block of channel): NO BLOCK
Even at a concentration as high as 100 μM
  blocking the chloride channel: completely ineffective
